One assay has as its target KRAS G12C (Homo sapiens (Human), UniProt P01116, C118A/G12C). Description: 2 h coupled exchange assay. To be noted: Avg 2 h Coupled exchange IC50, 2 h compound pre-incubation, SOS-mediated nucleotide exchange. Type of assay: biochemical. As for the experimental part: The term “2 h coupled exchange assay” or “20 h coupled exchange assay” as used herein refers to the assay described in the Section entitled “BIOLOGICAL EVALUATION.”
Chain of KRAS G12C (P01116 other isoform, or with tags, fused parts or gaps G12C/C118A): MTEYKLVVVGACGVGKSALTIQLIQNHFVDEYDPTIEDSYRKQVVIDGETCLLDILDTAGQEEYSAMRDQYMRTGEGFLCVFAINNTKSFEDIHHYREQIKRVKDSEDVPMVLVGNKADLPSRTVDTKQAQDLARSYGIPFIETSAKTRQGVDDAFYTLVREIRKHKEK
Regarding `C=CC(=O)N1CC2(CCN(c3nc4c(c(-c5c(C)ccc6[nH]ncc56)c3C#N)CC(C)(C)C4)[C@H]2C)C1` (atropisomer, axis not shown; (P)) [Example 13-53, (P)-6,6-dimethyl-4-(5-methyl-1H-indazol-4-yl)-2-((5S)-5-methyl-2-(2-propenoyl)-2,6-diazaspiro[3.4]octan-6-yl)-6,7-dihydro-5H-cyclopenta[b]pyridine-3-carbonitrile], the IC50 (usually the concentration that inhibits the measured activity by half) came to 0.657 µM.
On the same count and under the same terms, the value for `CN(C)C/C=C/C(=O)N1CC2(CCN(c3nc4c(c(-c5cc(O)cc6ccccc56)c3C#N)CC[C@@H]3C[C@H]43)C2)C1` (atropisomer, axis not shown; (P)) [Example 13-87, (P)-(6aR,7aS)-2-(2-((2E)-4-(dimethylamino)-2-butenoyl)-2,6-diazaspiro[3.4]octan-6-yl)-4-(3-hydroxy-1-naphthalenyl)-6,6a,7,7a-tetrahydro-5H-cyclopropa[h]quinoline-3-carbonitrile] was 0.13 µM.
`CN(C)C/C=C/C(=O)N1CC2(CCN(c3nc4c(c(-c5cc(O)cc6ccccc56)c3C#N)CC[C@H]3C[C@@H]43)C2)C1` (racemic) [Example 13-86, (M)-(6aR,7aS)-2-(2-((2E)-4-(dimethylamino)-2-butenoyl)-2,6-diazaspiro[3.4]octan-6-yl)-4-(3-hydroxy-1-naphthalenyl)-6,6a,7,7a-tetrahydro-5H-cyclopropa[h]quinoline-3-carbonitrile and (M)-(6aS,7aR)-2-(2-((E)-4-(dimethylamino)but-2-enoyl)-2,6-diazaspiro[3.4]octan-6-yl)-4-(3-hydroxynaphthalen-1-yl)-6,6a,7,7a-tetrahydro-5H-cyclopropan[h]quinoline-3-carbonitrile]: half-maximal inhibition (IC50) required 20.4 µM.
On the same count and under the same terms, the value for `C=CC(=O)N1CC2(CCN(c3nc4c(c(-c5c(C)ccc6[nH]ncc56)c3C)CCC(C)(C)C4)C2)C1` (single isomer, unassigned) [Example 2-12, (M)-1-(6-(3,7,7-trimethyl-4-(5-methyl-1H-indazol-4-yl)-5,6,7,8-tetrahydro-2-quinolinyl)-2,6-diazaspiro[3.4]octan-2-yl)-2-propen-1-one] was 1.11 µM; that for `C=CC(=O)N1CC2(CCN(c3nc4c(c(-c5cccc6cc(O)ccc56)c3C)CCC(C)(C)C4)C2)C1` (single isomer, unassigned) [Example 2-14, (M)-1-(6-(4-(6-hydroxy-1-naphthalenyl)-3,7,7-trimethyl-5,6,7,8-tetrahydro-2-quinolinyl)-2,6-diazaspiro[3.4]ctan-2-yl)-2-opropen-1-one] was 2.9 µM; that for `C=CC(=O)N1CC2(CCN(c3nc4c(c(-c5ccc(F)c6sc(N)nc56)c3C)CCC(C)(C)C4)C2)C1` (single isomer, unassigned) [Example 2-18] was 5.24 µM.
Same read-out and setting: the value for `C=CC(=O)N1CC2(CCN(c3nc4c(c(-c5c(C)ccc6cnn(C)c56)c3C)CCC(C)(C)C4)C2)C1` (single isomer, unassigned) [Example 2-20, (M)-1-(6-(4-(1,6-dimethyl-1H-indazol-7-yl)-3,7,7-trimethyl-5,6,7,8-tetrahydro-2-quinolinyl)-2,6-diazaspiro[3.4]octan-2-yl)-2-propen-1-one] was 10.5 µM; that for `C=CC(=O)N1CC2(CCN(c3nc4c(c(-c5c(C)ccc6cn[nH]c56)c3C)CCC(C)(C)C4)C2)C1` (single isomer, unassigned) [Example 2-24, (P)-1-(6-(3,7,7-trimethyl-4-(6-methyl-1H-indazol-7-yl)-5,6,7,8-tetrahydro-2-quinolinyl)-2,6-diazaspiro[3.4]octan-2-yl)-2-propen-1-one] was 0.119 µM; that for `C=CC(=O)N1CC2(CCN(c3nc4c(c(-c5c(C)ccc6cn[nH]c56)c3C)CCC(C)(C)C4)C2)C1` (single isomer, unassigned) [Example 2-25, (M)-1-(6-(3,7,7-trimethyl-4-(6-methyl-1H-indazol-7-yl)-5,6,7,8-tetrahydro-2-quinolinyl)-2,6-diazaspiro[3.4]octan-2-yl)-2-propen-1-one] was 6.88 µM.
Molecule `C=CC(=O)N1CC2(CCN(c3nc4c(c(-c5cc(O)cc6cccnc56)c3C#N)C[C@H]3C[C@@H]4C3(C)C)C2)C1` (single isomer, unassigned) [Example 2-44] registered an IC50 of 131 µM.
For the molecule `C=CC(=O)N1CC2(CCN(c3nc4c(c(-c5cc(O)cc6ncccc56)c3C#N)C[C@H]3C[C@@H]4C3(C)C)C2)C1` (single isomer, unassigned) [Example 2-47], the IC50 was found to be 0.181 µM.
On the same count and under the same terms, the value for `C=CC(=O)N1CC2(CCN(c3cc4c(c(-c5cc(O)cc6ccccc56)c3C#N)OCCC4)C2)C1` (single isomer, unassigned) [Example 2-53, (P)-8-(3-hydroxy-1-naphthalenyl)-6-(2-(2-propenoyl)-2,6-diazaspiro[3.4]octan-6-yl)-3,4-dihydro-2H-chromene-7-carbonitrile] was 7.11 µM.
`C=CC(=O)N1CC2(CCN(c3nc4ccccc4c(-c4c(C)ccc5[nH]ncc45)c3C)C2)C1` (single isomer, unassigned) [Example 2-55, (P)-1-(6-(3-methyl-4-(5-methyl-1H-indazol-4-yl)-2-quinolinyl)-2,6-diazaspiro[3.4]octan-2-yl)-2-propen-1-one] had a concentration for half-maximal inhibition (IC50) of 0.419 µM.
In turn, `C=CC(=O)N1CC2(CCN(c3nc4ccccc4c(-c4c(C)ccc5[nH]ncc45)c3C)C2)C1` (single isomer, unassigned) [Example 2-56, (M)-1-(6-(3-methyl-4-(5-methyl-1H-indazol-4-yl)-2-quinolinyl)-2,6-diazaspiro[3.4]octan-2-yl)-2-propen-1-one] registered a half-maximal inhibitory concentration (IC50) of 43.6 µM.
In turn, `C=CC(=O)N1CC2(CCN(c3nc4cc(F)ccc4c(-c4c(C)ccc5[nH]ncc45)c3C)[C@@H]2C)C1` (single isomer, unassigned) [Example 2-59] returned a half-maximal inhibitory concentration (IC50) of 14.9 µM.
Same read-out and setting: the value for `C=CC(=O)N1CC2(CCN(c3nc4cc(F)ccc4c(-c4c(C)ccc5[nH]ncc45)c3C)[C@H]2C)C1` (single isomer, unassigned) [Example 2-60] was 4.67 µM.
On the same count and under the same terms, then `C=CC(=O)N1CC2(CCN(c3nc4c(c(-c5cc(O)ccc5C)c3C#N)C[C@H]3C[C@@H]4C3(C)C)C2)C1` (single isomer, unassigned) [Example 2-68], with 16 µM; and `C=CC(=O)N1CC2(CCN(c3nc4c(c(-c5cccc(F)c5O)c3C#N)C[C@H]3C[C@@H]4C3(C)C)C2)C1` (single isomer, unassigned) [Example 2-71], with 20.3 µM; and `C=CC(=O)N1CC2(CCN(c3nc4c(c(-c5cccc(F)c5O)c3C#N)C[C@H]3C[C@@H]4C3(C)C)C2)C1` (single isomer, unassigned) [Example 2-72], with 0.651 µM.
Still for that read-out and setting: the value for `C=CC(=O)N1CC2(CCN(c3nc4c(c(-c5cc(O)ccc5Cl)c3C#N)C[C@H]3C[C@@H]4C3(C)C)C2)C1` (single isomer, unassigned) [Example 2-75] was 0.454 µM.
`C=CC(=O)N1CC2(CCN(c3nc4c(c(-c5cc(O)ccc5C)c3Cl)COC(C)(C)C4)C2)C1` (single isomer, unassigned) [Example 2-80, (M)-1-(6-(3-chloro-4-(5-hydroxy-2-methylphenyl)-7,7-dimethyl-7,8-dihydro-5H-pyrano[4,3-b]pyridin-2-yl)-2,6-diazaspiro[3.4]octan-2-yl)-2-propen-1-one] had a concentration for half-maximal inhibition (IC50) of 20.1 µM.
For the molecule `C=CC(=O)N1CC2(CCN(c3nc4c(c(-c5c(C)ccc6[nH]ncc56)c3Cl)COC(C)(C)C4)C2)C1` (single isomer, unassigned) [Example 2-84, (P)-1-(6-(3-chloro-7,7-dimethyl-4-(5-methyl-1H-indazol-4-yl)-7,8-dihydro-5H-pyrano[4,3-b]pyridin-2-yl)-2,6-diazaspiro[3.4]octan-2-yl)-2-propen-1-one], 0.808 µM corresponded to half-maximal inhibition (IC50).
On the same count and under the same terms, then `C=CC(=O)N1CC2(CCN(c3nc4c(c(-c5c(C)ccc6[nH]ncc56)c3Cl)COC(C)(C)C4)C2)C1` (single isomer, unassigned) [Example 2-85, (M)-1-(6-(3-chloro-7,7-dimethyl-4-(5-methyl-1H-indazol-4-yl)-7,8-dihydro-5H-pyrano[4,3-b]pyridin-2-yl)-2,6-diazaspiro[3.4]octan-2-yl)-2-propen-1-one], with 12.6 µM; and `C=CC(=O)N1CC2(CCN(c3nc4c(c(-c5c(C)ccc6cnn(C)c56)c3Cl)COC(C)(C)C4)C2)C1` (single isomer, unassigned) [Example 2-87, (M)-1-(6-(3-chloro-4-(1,6-dimethyl-1H-indazol-7-yl)-7,7-dimethyl-7,8-dihydro-5H-pyrano[4,3-b]pyridin-2-yl)-2,6-diazaspiro[3.4]octan-2-yl)-2-propen-1-one], with 0.115 µM; and `C=CC(=O)N1CC2(CCN(c3nc4c(c(-c5c(C)ccc6cnn(C)c56)c3Cl)COC(C)(C)C4)C2)C1` (single isomer, unassigned) [Example 2-88, (P)-1-(6-(3-chloro-4-(1,6-dimethyl-1H-indazol-7-yl)-7,7-dimethyl-7,8-dihydro-5H-pyrano[4,3-b]pyridin-2-yl)-2,6-diazaspiro[3.4]octan-2-yl)-2-propen-1-one], with 4.73 µM.
Still for that read-out and setting: then `C=CC(=O)N1CC2(CCN(c3nc4c(c(-c5c(C)c(Cl)cc6cnn(C)c56)c3Cl)COC(C)(C)C4)C2)C1` (single isomer, unassigned) [Example 2-90, (M)-1-(6-(3-chloro-4-(5-chloro-1,6-dimethyl-1H-indazol-7-yl)-7,7-dimethyl-7,8-dihydro-5H-pyrano[4,3-b]pyridin-2-yl)-2,6-diazaspiro[3.4]octan-2-yl)-2-propen-1-one], with 0.005 µM.

The same assay, now with this note: read-out: Avg 2 h Coupled exchange IC50, 2 h compound pre-incubation.
Regarding `C=CC(=O)N1CC2(CCN(c3nc4ccccc4c(-c4c(C)ccc5[nH]ncc45)c3C=C)C2)C1` (atropisomer, axis not shown; (M)) [Example 26-2, (M)-1-(6-(3-ethenyl-4-(5-methyl-1H-indazol-4-yl)-2-quinolinyl)-2,6-diazaspiro[3.4]octan-2-yl)-2-propen-1-one], the IC50 was determined as 34.6 µM.

(Values after patent publication US20240059703A1 (AMGEN INC., priority 2021, published 2024).)
